Results on 2 substances are retold here after patent publication US12583888B2, “Bi-specific extracellular matrix binding peptides and methods of use thereof” (University of Tartu, priority 2019, dated 2026).

One data set addresses T1, TNC-C (Homo sapiens, UniProt P24821).
T1 construct: made in house; host or cells: E. coli BL21 Rosetta 2 (DE3) pLysS
T1 sequence (P24821 with tags, fused parts or gaps): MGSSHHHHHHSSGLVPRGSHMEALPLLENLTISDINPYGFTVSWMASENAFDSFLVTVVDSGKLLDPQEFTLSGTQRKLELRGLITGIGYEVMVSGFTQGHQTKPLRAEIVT
Put plainly: Individual peptide-phage binding to TNC-C. Conditions: individual peptide phages.

In a further data set the test system is P13 tumor. The note with it: i.v. equimolar mix, 2 h circulation. The text has this:
(§1) In vivo play-off was used to evaluate systemic homing of peptide phage to xenograft tumor models. The in vitro selected candidate TNC-C binding peptides, phages displaying published tumor homing peptides, and control peptides were amplified and purified by precipitation with PEG-8000 (Sigma-Aldrich, St. Louis, MO, USA), followed by CsCl2 gradient ultracentrifugation and dialysis. The amplified phage peptides were pooled in equimolar quantities, and injected intravenously (final 1×10^10 pfu in 200 μl PBS) in tumor-bearing mice for two hour circulation, after which mice were anesthetized with 2.5% avertin and intracardially perfused with DMEM intracardially. The tumors and organs were collected in lysogeny broth (LB)+1% NP40, and the tissues were homogenized using a hand-held homogenizer for phage peptide rescue. Phages in the tissue lysates were amplified in E. coli, purified by precipitation with PEG-8000 and DNA was extracted using a DNA extraction kit (High Pure PCR Template Preparation Kit; Roche, Basel, Switzerland). Next-generation sequencing of phage genomic DNA evaluated the representation of each phage in input mixture, in tumor and control organs with Ion Torrent system (Thermo Fisher Scientific, Waltham, MA, USA). The next generation deep sequencing of phage library was done using Ion Torrent according to the manufacturer's protocol with slight modification. The FASTQ data from Ion Torrent was processed by a custom python script that identified the barcodes, constant flanking residues, and extracted the reads of the correct length.

For another data set, the system named is P3 stem cell-like tumor. The note with it: i.v. equimolar mix, 2 h circulation.
Description: as §1

Data set [1] concerns PC3 prostate carcinoma xenografts. The note with it: i.v. equimolar mix, 2 h circulation.
Description: as §1

In another data set the test system is U87-MG glioblastoma. The note with it: i.v. equimolar mix, 2 h circulation.
Description: as §1

A further data set has as its system WT-GBM tumor. The note with it: i.v. equimolar mix, 2 h circulation.
Description: as §1

A further data set concerns normal brain. The note with it: i.v. equimolar mix, 2 h circulation.
Description: as §1

Data set [2] can be described thus: Zeta potential and size of iron oxide nanoworms by DLS. The format is physicochemical. Conditions: n = 3. The protocol:
The concentration of the NWs was determined by constructing a calibration curve with iron oxide and measuring the absorbance of NWs at 400 nm with a NanoDrop 2000c spectrophotometer (Thermo Scientific). The concentration measurements were confirmed by ICP-MS. Transmission electron microscopy (TEM, Tecnai 10, Philips, Netherlands) was used to image the nanoparticles. Dynamic Light Scattering (DLS; Zetasizer Nano ZS, Malvern Instruments, UK) was used to assess the zeta potential, polydispersity and size of NWs.

The subject of data set [3] is orthotopic NCH421K glioblastoma xenografts. Put plainly: Systemic NW tumor homing, FAM signal by confocal microscopy. The format is in vivo, mice. Conditions: NCH421K tumors, 7.5 mg/kg i.v., 5 h.
Description: For NW biodistribution studies, NWs (7.5 mg/kg) in PBS were injected into the tail vein of the tumor-bearing mice, followed by cardiac perfusion with 20 ml PBS/DMEM before collection tumor and control organs for imaging. In control experiments, NW injection was preceded by systemic pre-injection of blocking FN-EDB and/or TNC-C antibodies (30 μg/mouse) 15 min prior to injection of the NWs.
Snap-frozen 10 μm tumor cryosections were mounted on Superfrost™^+ slides. The sections were equilibrated at RT and fixed with 4% paraformaldehyde/methanol and permeabilized with PBST (PBS+0.05% Tween 20), blocked with PBST, 5% BSA, 5% goat serum (GE Healthcare, Little Chalfont, UK) at RT for 30 min, followed by primary antibody incubation at RT for 1 h. […] The coverslips were mounted on glass slides with Fluoromount-G (Electron Microscopy Sciences, PA, USA), imaged using confocal microscopy (Olympus FV1200MPE, Tokyo, Japan) and analyzed using the FV10-ASW4.2 viewer, Imaris software and ImageJ freeware.
Data set [4] deals with orthotopic WT-GBM glioblastoma. The data set is described as above. The class given is in vivo, mice. The note with it: WT tumors, 7.5 mg/kg i.v., 5 h.
Description: (§2) FAM-labeled PL2 peptide coupled NW or control FAM-NW (7.5 mg/kg) in PBS were injected into the tail vein of the subcutaneous U87, PC3, and orthotropic WT-GBM tumor mice. Five h after circulation, the tumor and organs were collected by cardiac perfusion of mice with 20 ml PBS/DMEM under deep anesthesia. Tissues were imaged under an Illuminatool Bright Light System LT-9900 (Lightools Research, Encinitas, CA, USA) before Snap-frozen. The frozen tissues were cryosectioned 8-10 μm and mounted on a superfrost+ slides. The sections were equilibrated at RT and fixed with 4% paraformaldehyde/methanol. The immunostaining performed with following primary antibodies; rabbit anti-fluorescein IgG fragment (cat. no. A889, Thermo Fisher Scientific, MA, USA), rat anti-mouse CD31 (BD Biosciences, CA, USA), and in-house prepared CF647 or CF546-labeled single chain antibodies ScFV G11, for secondary antibodies; Alexa 488 goat anti-rabbit IgG, Alexa 647 goat anti-rat IgG, and Alexa 546 goat anti-mouse IgG, were from Invitrogen, CA, USA. Nuclei were counterstained with 4′,6-diamidino-2-phenylindole (DAPI, Molecular Probes) at one 1 μg/ml. The coverslips were mounted onto glass slides with Fluoromount-G (Electron Microscopy Sciences, PA, USA) imaged using confocal microscopy (Olympus FV1200MPE, Hamburg, Germany), and analyzed using the FV10-ASW4.2 viewer/Imaris software/Fiji ImageJ.
The subject of data set [5] is PC3 prostate carcinoma xenografts. The description is as above. Conditions: PC3 tumors, 7.5 mg/kg i.v., 5 h. The class given is in vivo, mice.
Description: as §2
The subject of a further data set is orthotopic NCH421K GBM. The data set is described as follows: Magnetic resonance imaging of NW-injected mice. The format is in vivo. The procedure: For MRI, nude mice bearing orthotopic NCH421k GBM were i.v. injected with iron oxide nanoworms at 5 mg/kg. Five hours after NW injection, the mice were anesthetized with isoflurane and subjected to MRI using a 9.4 Tesla BioSpec 94/21 (Bruker BioSpin MRI GmbH, Ettlingen, Germany) equipped with ParaVision Acquisition 6.0.1 software (Bruker, Ettlingen, Germany). Following intravital MRI, the animals were perfused with PBS to remove blood and background circulating NWs and subjected to postmortem MRI. After imaging, tumors and control tissues were harvested and sectioned for immunofluorescence staining. Mice received isoflurane in oxygen mix (1.5%, flow rate of 200 ml/min) for anesthesia; the body temperature and breathing rate were monitored throughout the experiments. T2* map MGE (Multiple Gradient Echo) sequences were acquired in sagittal and coronal orientations. The following parameters were used during the data acquisition: slice thickness −0.375 mm (3 slices averaged offline for improved signal/noise ratio); inter-slice gap −0.375 mm; repetition time −800; Echo time ˜3.5-38.5 ms; flip angle ˜50°; axial slices ˜128, pixel bandwidth ˜292.9; imaging frequency ˜400.3; matrix ˜256×256, and magnetic field strength ˜9.4. To calculate T2 relaxation times, regions of interest (ROIs) were drawn manually on the images by using image sequence analysis (ISA) tool package (Paravision 5, Bruker) using T2vtr fit function y=A+C*exp (−t/T2) (A=Absolute bias, C=signal intensity, T2=spin-spin relaxation time) for T2 evaluation. To calculate mean signal intensity in the tumor to a reference region, ROIs were drawn manually on the images at given echo time (TE). Experiments were repeated in triplicate.

In another data set the test system is s.c. U87MG tumors. Put plainly: Experimental tumor therapy. The class given is in vivo, mice. The protocol: U87MG cells (4×10^6) in 100 μl PBS were implanted subcutaneously into the right flank of 11-15 week old male nude mice. The weight of animals and tumor volume [length×(width×width)/2] was recorded on every other day until tumor volume reached −100 mm^3. Animals were randomized into 4 groups (PBS, FAM-D[KLAKLAK]2-NWs, FAM-PL1-NWs, and FAM-PL1-D[KLAKLAK]2-NWs; 8 mice/group). 100 μl of NWs (at 5 mg/kg body weight of iron) or PBS was intravenously injected into the tail vein every other day for ten injections. Tumor size, body weight, survival, and behavior were recorded during treatment and post-therapy. When the tumor volume reached 2000 mm^3 (or >10% body weight), the mice were sacrificed, and organs and tumors were excised, macroscopically observed and snap frozen. Tumor volume, Kaplan-Meier survival and body weight curves were calculated using the GraphPad Prism 6 software with p-values <0.05 considered significant. For experimental therapy on intracranially-implanted NCH421k GBM, 32 tumor mice were randomized into 4 groups 3 days after the tumor implantation. […] Tumor size, body weight, survival, and behavior were recorded during and post-treatment. Kaplan-Meier survival and body weight curves were calculated using GraphPad Prism 6 and P values <0.05 were considered significant.

The subject of data set [6] is intracranially-implanted NCH421k GBM. The data set is described as follows: Experimental tumor therapy. The format is in vivo, mice. Details: percent of the surviving mice: concentration or dose not given beside the values. The protocol:
U87MG cells (4×10^6) in 100 μl PBS were implanted subcutaneously into the right flank of 11-15 week old male nude mice. The weight of animals and tumor volume [length×(width×width)/2] was recorded on every other day until tumor volume reached −100 mm^3. Animals were randomized into 4 groups (PBS, FAM-D[KLAKLAK]2-NWs, FAM-PL1-NWs, and FAM-PL1-D[KLAKLAK]2-NWs; 8 mice/group). 100 μl of NWs (at 5 mg/kg body weight of iron) or PBS was intravenously injected into the tail vein every other day for ten injections. Tumor size, body weight, survival, and behavior were recorded during treatment and post-therapy. When the tumor volume reached 2000 mm^3 (or >10% body weight), the mice were sacrificed, and organs and tumors were excised, macroscopically observed and snap frozen. Tumor volume, Kaplan-Meier survival and body weight curves were calculated using the GraphPad Prism 6 software with p-values <0.05 considered significant. For experimental therapy on intracranially-implanted NCH421k GBM, 32 tumor mice were randomized into 4 groups 3 days after the tumor implantation. 100 μl of the PBS or PBS containing FAM-D[KLAKLAK]2-NWs, FAM-PL1-NWs and FAM-PL1-D[KLAKLAK]2-NWs (5 mg/kg body weight of iron; SEQ ID NO:6) were injected i.v. every other day for 10 total injections. Tumor size, body weight, survival, and behavior were recorded during and post-treatment. Kaplan-Meier survival and body weight curves were calculated using GraphPad Prism 6 and P values <0.05 were considered significant.

The test system of the next data set is clinical GBM samples. The data set is described as follows: NW overlay assay on clinical GBM cryosections. Details: species or system human. Conditions: confocal imaging. The protocol: Fresh surgical GBMs ([…]) were snap-frozen in liquid nitrogen, cryosectioned at 8 μm, fixed with methanol, and permeabilized with TBS followed by blocking buffer containing 5% BSA, 5% goat serum and 5% FBS in TBS. For overlay, the sections were incubated with […] of PL1-NW or NW at 4° C. overnight. The sections were washed and blocked with blocking buffer, followed by immunostaining using rabbit anti-fluorescein primary antibodies and detection with the Alexa-488 anti-rabbit secondary antibody. FN-EDB and TNC-C were detected by fluorescently labeled single-chain antibodies ScFV L19 FN-EDB-CF647 and ScFV G11 TNC-C-CF555.

Data set [7] relates to Ad-VEGF-A164-induced angiogenic vessels. Conditions: adenovirus-injected ear, 7.5 mg/kg i.v., 24 h.
Description: Angiogenesis was induced by injecting 2.5×10^8 PFU of an adenoviral vector driving expression of mouse VEGF^164 (Ad-VEGF^164) intradermally into the left ear of 7-8 week-old female nude mice (Nagy et al., Methods Enzymol. 444:43-64 (2008)). The right ear served as a control. PL1-NW or NW (at 7.5 mg/kg) were i.v. injected 4 days after induction of angiogenesis and 24 h before intravital imaging. Texas Red/Evans Blue was i.v. injected at 30 mg/kg to allow visualization of blood vessels. The ear was fixed on the coverslip for imaging using a veterinary-grade glue tape, and a mold was prepared around the ear from agarose for imaging. The body temperature was maintained throughout the experiment with a heat mat. Images and videos were acquired at an excitation wavelength of 920 nm, optical sections were taken under identical conditions, and experiments were repeated in triplicates.
Data set [8] has as its system s.c. U87MG glioblastoma xenografts. Put plainly: Systemic NW tumor homing, FAM signal by confocal microscopy. The note with it: U87MG tumors, 7.5 mg/kg i.v., 5 h.
Description: as §2

Where “and” joins values, the source holds several entries; their conditions need not be identical. Equal values may be shown once. No end group written: not given here.

For the substance AVRGRLRVAKLAAALE, in the data set with TNC-C, the “TNC-C binding (fold G7 control phage)” value was 5333 fold and 7111 fold. For the same substance, the “Representation of phage in tumors (fold G7 control phage), P13” value with P13 tumor came to 0.6 fold. Further, the “Representation of phage in tumors (fold G7 control phage), P3 SCL” value in the data set on P3 stem cell-like tumor was 0.6 fold. Moreover, the “Representation of phage in tumors (fold G7 control phage), PC3” value in data set [1] is recorded as 1.0 fold. In addition, the “Representation of phage in tumors (fold G7 control phage), U87-MG” value with U87-MG glioblastoma is on record as 0.8 fold. In the data set on WT-GBM tumor, the “Representation of phage in tumors (fold G7 control phage), WT-GBM” value came to 1.3 fold. The “Representation of phage in control brain tissue (fold G7 control phage), Norm. brain” value in the data set with normal brain is recorded as 0.1 fold.
Turning to “PL1-NW: iron oxide nanoworms coated with FAM-labeled PL1 peptide (CPPRRGLIKLKTS; not fully specified (residue 1); also: FAM label)”, the “Zeta Potential” value in data set [2] is on record as −10.3 ± 0.7 mV. Also, the “increase in NW accumulation compared to non-targeted NWs” value in data set [3] is recorded as 8.8 fold; in [4], 3.3 fold; in data set [5], 4.7 fold; in data set [8], 5 fold. Besides, in the data set with orthotopic NCH421K GBM (5 mg/kg iron i.v.), the “decrease of T2* relaxation time within the tumor” value is listed as 27-36%. The “T2* relaxation time within the tumor” value is 17 ± 1 ms in the data set with orthotopic NCH421K GBM (after NW injection, first value (post-scan, 5 h)); 14 ± 4 ms in the data set with orthotopic NCH421K GBM (after NW injection, second value (perfused)); “about 23±2 ms” in the data set with orthotopic NCH421K GBM (before NW injection (pre-scan)). The Median survival in the data set with s.c. U87MG tumors (U87MG, Kaplan-Meier) is recorded as 39 days; in data set [6] (Kaplan-Meier), 42 days. The “percent of the surviving mice” value is 100% with s.c. U87MG tumors (U87MG, day 0); 88% with s.c. U87MG tumors (U87MG, day 29); 75% in the data set on s.c. U87MG tumors (U87MG, day 31); 75% in the data set on s.c. U87MG tumors (U87MG, day 33); 63% with s.c. U87MG tumors (U87MG, day 35); 63% in the data set with s.c. U87MG tumors (U87MG, day 37). The “percent of the surviving mice” value in the data set with s.c. U87MG tumors (U87MG, day 39) stood at 38%; in the data set on s.c. U87MG tumors (U87MG, day 41) it was 25%; with s.c. U87MG tumors (U87MG, day 43), 25%; with s.c. U87MG tumors (U87MG, day 45) it was 13%; in the data set on s.c. U87MG tumors (U87MG, day 49), 13%; in the data set on s.c. U87MG tumors (U87MG, day 57), 0%. Moreover, the “percent of the surviving mice” value was found to be 100% in [6] (day 0); 100% in data set [6] (day 32); 75% in data set [6] (day 37); 62.5% in [6] (day 38); 62.5% in data set [6] (day 39); 62.5% in [6] (day 40). Further, the “percent of the surviving mice” value in data set [6] (day 41) is 62.5%; in data set [6] (day 42) it was 37.5%; in data set [6] (day 43), 25%; in data set [6] (day 44), 0%. In the data set with s.c. U87MG tumors (s.c. U87MG, i.v. every other day, 10 injections, 5 mg/kg iron), the tumor growth entry was “only a slight reduction in tumor growth”. Besides, the “binding to clinical GBM cryosections” value in the data set with clinical GBM samples is listed as “showed binding to all human GBM samples tested”. Also, the “increase in accumulation in angiogenic vessels relative to nontargeted NWs” value in [7] was roughly 3 fold.
